Drawing on ChEMBL document CHEMBL5634191, “Vinylpyridine as a Tunable Covalent Warhead Targeting C797 in EGFR” (ACS Med Chem Lett, 2024), this text covers logD for eight compounds.

The term logD denotes the decadic logarithm of the distribution of all forms, ionised or not, between an organic phase and buffer at a given pH. A higher logD goes with higher lipophilicity.

A short description of the series: Lipophilicity, log D of the compound at pH 7.4. It counts as physicochemical. The following applies: buffer.
As to `COC/C=C/c1cc(Oc2cc3c(Nc4cccc(Cl)c4F)ncnc3cc2OC)ccn1`, the log distribution coefficient (logD) was 4.2.

Turning to `C=C(C)c1cc(Oc2cc3c(Nc4cccc(Cl)c4F)ncnc3cc2OC)ccn1`, the logD came out at 4.6.

With `COc1cc2ncnc(Nc3ccc(F)c(Cl)c3)c2cc1OCCCN1CCOCC1` [GEFITINIB], the logD was 3.8.

For the compound `CN(C)C/C=C/C(=O)Nc1cc2c(Nc3ccc(F)c(Cl)c3)ncnc2cc1O[C@H]1CCOC1` [AFATINIB], the logD was 3.6.

Take `C=CC(=O)N1CCC(Oc2cc3c(Nc4ccc(Cl)c(Cl)c4F)ncnc3cc2OC)CC1` [POZIOTINIB]: the logD came to 4.3.

As for `COc1cc2ncnc(Nc3cccc(Cl)c3F)c2cc1Oc1ccnc(/C=C/CN2CCOCC2)c1`, the log distribution coefficient (logD) was found to be 3.8.

For `C=Cc1ccnc(Oc2cc3c(Nc4cccc(Cl)c4F)ncnc3cc2OC)c1`, the logD is 4.6.

For the compound `C=Cc1cccc(Oc2cc3c(Nc4cccc(Cl)c4F)ncnc3cc2OC)n1`, the logD is 4.6.
